pKi: −log10 of the molar value.

For this assay, the target named is T1, human vasopressin V1b receptor (Homo sapiens, UniProt P47901).
T1 construct: expressed in transfected cells; host or cells: CHO-K1 (cell line hV1b_3H2_CHO), membrane preparation
T1 sequence (P47901 1-424): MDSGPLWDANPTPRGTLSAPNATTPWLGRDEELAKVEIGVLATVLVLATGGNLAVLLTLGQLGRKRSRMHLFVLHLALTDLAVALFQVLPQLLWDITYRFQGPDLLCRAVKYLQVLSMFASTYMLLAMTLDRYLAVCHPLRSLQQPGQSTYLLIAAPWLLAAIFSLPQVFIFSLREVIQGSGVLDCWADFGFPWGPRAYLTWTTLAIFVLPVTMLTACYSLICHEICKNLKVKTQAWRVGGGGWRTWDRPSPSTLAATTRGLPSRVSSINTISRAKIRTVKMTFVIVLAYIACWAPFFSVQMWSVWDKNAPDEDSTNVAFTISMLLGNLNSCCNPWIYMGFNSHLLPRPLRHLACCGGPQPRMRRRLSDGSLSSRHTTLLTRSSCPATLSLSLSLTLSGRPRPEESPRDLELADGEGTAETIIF
Kind of assay: Vasopressin V1b receptor binding test. Particulars: membranes of CHO-K1 cells, displacement of 1.5 nM 3H-AVP. A digest of the protocol:
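Radioligand competition binding to human V1b receptor membranes in 50 mM Tris, 10 mM MgCl2, 0.1% BSA, pH 7.4; nonspecific binding with 1 μM AVP.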
A word on the pKi: it is the negative decadic logarithm of the Ki, by convention in mol/L. A lower pKi goes with a large Ki. Take `CCOc1ccc(OC)cc1C1(N2CCN(c3ccnc(C)c3)CC2)C(=O)N(S(=O)(=O)c2ccc(OC)cc2OC)c2ccc(C#N)cc21` (single isomer, unassigned; (+)) [Example 106, (+)-5-Cyano-1-(2,4-dimethoxy-benzenesulphonyl)-3-(2-ethoxy-5-methoxyphenyl)-3-[4-(2-methyl-pyridin-4-yl)-piperazin-1-yl]-2,3-dihydro-1H-indol-2-one]: the pKi is more than 7.30.

On to `CCOc1ccccc1C1(N2CCN(c3ccncc3)CC2)C(=O)N(S(=O)(=O)c2ccc(OC(F)F)cc2)c2ccc(C#N)cc21` (racemic) [Example 87, (±)-5-Cyano-1-(4-difluoromethoxy-benzenesulphonyl)-3-(2-ethoxyphenyl)-3-(4-pyridin-4-yl-piperazin-1-yl)-2,3-dihydro-1H-indol-2-one], for which the negative logarithm of the Ki (pKi) was 6.30 to 7.30.

The compound `CCOc1ccccc1C1(N2CCN(c3ccncc3)CC2)C(=O)N(S(=O)(=O)c2ccc(Cl)cc2F)c2ccc(C#N)cc21` (racemic) [Example 78, (±)-5-Cyano-1-(4-chloro-2-fluoro-benzenesulphonyl)-3-(2-ethoxyphenyl)-3-(4-pyridin-4-yl-piperazin-1-yl)-2,3-dihydro-1H-indol-2-one] had a pKi of 6.30 to 7.30.

Compound `CCOc1ccc(OC)cc1C1(N2CCN(C3CCN(C)CC3)CC2)C(=O)N(S(=O)(=O)c2ccc(OC)cc2OC)c2ccc(C#N)cc21` (racemic) [Example 102, (±)-5-Cyano-1-(2,4-dimethoxy-benzenesulphonyl)-3-(2-ethoxy-5-methoxyphenyl)-3-[4-(1-methyl-piperidin-4-yl)-piperazin-1-yl]-2,3-dihydro-1H-indol-2-one] showed a pKi of more than 7.30.

`COc1ccc(S(=O)(=O)N2C(=O)C(c3ccccc3OC)(N3C[C@H]4CN(c5ccncc5)C[C@H]43)c3cc(Cl)ccc32)c(OC)c1` (stereo partly drawn) [Example 21, 5-Chloro-1-(2,4-dimethoxy-benzenesulphonyl)-3-(2-methoxyphenyl)-3-((1R,5S)-3-pyridin-4-yl-3,6-diaza-bicyclo[3.2.0]hept-6-yl)-1,3-dihydro-indol-2-one] showed a pKi of more than 7.30.

Compound `CCOc1ccc(OC)cc1C1(N2CCN(c3ccnc(CC)c3)CC2)C(=O)N(S(=O)(=O)c2ccc(OC)cc2OC)c2ccc(C#N)cc21` (racemic) [Example 94, (±)-5-Cyano-1-(2,4-dimethoxy-benzenesulphonyl)-3-(2-ethoxy-5-methoxyphenyl)-3-[4-(2-ethyl-pyridin-4-yl)-piperazin-1-yl]-2,3-dihydro-1H-indol-2-one] showed a pKi of more than 7.30.

Turning to `COc1ccc(S(=O)(=O)N2C(=O)C(c3ccccc3OC)(N3CCN(c4ccncc4)CC3)c3cc(C#N)ccc32)c(OC)c1` (centres unmarked) [Example 26, 5-Cyano-1-(2,4-dimethoxy-benzenesulphonyl)-3-(2-methoxyphenyl)-3-(4-pyridin-4-yl-piperazin-1-yl)-2,3-dihydro-1H-indol-2-one], the pKi is 6.30 to 7.30.

`COc1ccc(S(=O)(=O)N2C(=O)C(c3ccccc3OC)(N3CCN(c4ccncc4)CC3)c3cc(Cl)ccc32)c(OC)c1` (centres unmarked) [Example 3, 5-Chloro-1-(2,4-dimethoxy-benzenesulphonyl)-3-(2-methoxyphenyl)-3-(4-pyridin-4-yl-piperazin-1-yl)-1,3-dihydro-indol-2-one]: the pKi was more than 7.30.

(Values after patent publication US8431567B2 (Abbott GmbH & Co. KG, priority 2006, dated 2013).)
